The target of this test is Cyclooxygenase (Homo sapiens, UniProt P35354+P23219). Briefly: Inhibitory activity against Prostaglandin G/H synthase.
`O=C(O)c1ccccc1OCCN1C(=O)C=CC1=O`: the IC50 was 250 µM. On to `O=C(O)CCCCCN1C(=O)C=CC1=O`, for which the IC50 is over 800 µM. Consider `CCCCCCCCCCN1C(=O)C=CC1=O`, for which the IC50 was 14 µM. Take `Cc1ccccc1CN1C(=O)C=CC1=O`: the IC50 came out at 50 µM. The result for `CCCCCCCCCN1C(=O)C=CC1=O` reads 12 µM.

Compound `O=C(O)c1ccc(CN2C(=O)C=CC2=O)cc1` returned an IC50 of 27 µM. Under `CC(=O)Oc1ccc(N2C(=O)C=CC2=O)cc1C(=O)O` stands 29 µM; under `O=C(O)CCCCCCCCN1C(=O)C=CC1=O`, 26 µM. The result for `O=C(O)CCCCCCCCCCCN1C(=O)C=CC1=O` reads 140 µM; that for `O=C(O)CCCCCCCCCN1C(=O)C=CC1=O`, 37 µM; that for `CC(=O)Oc1cc(N2C(=O)C=CC2=O)ccc1C(=O)O`, over 200 µM. The result for `O=C(O)CCCCCCN1C(=O)C=CC1=O` reads 570 µM; that for `O=C(O)CCCCCCCCCCN1C(=O)C=CC1=O`, 40 µM.

For the origin of these results see ChEMBL document CHEMBL1129063, “Design, synthesis, and biochemical evaluation of N-substituted maleimides as inhibitors of prostaglandin endoperoxide synthases” (J Med Chem, 1996).
